This note sets out measurements from the SangsterLogP compilation.

Residues, ends and D or L forms follow the SMILES beside them. *: point of attachment. NHtBu = CC(C)(C)N*

The first series is described as follows: method code SF-RC, from DOI: 10.1021/jm00238a003, PMID: 1120999. The note with it: pH 7.0.
`CC(C)C(=O)OCC1OC(n2ccc(N)nc2=O)C(O)C1O` (stereo not given): the logD (usually lipophilicity at a set pH, counting ionised and neutral species) was 0.3.

Turning to `CC(C)(C)C(=O)OC[C@H]1O[C@@H](n2ccc(N)nc2=O)[C@@H](O)[C@@H]1O`, the logD was 0.1. In turn, `CCCCCCCC(=O)OC[C@H]1O[C@@H](n2ccc(N)nc2=O)[C@@H](O)[C@@H]1O` returned a logD of 1.6. Still for that read-out and setting: the figure for `Nc1ccn(C2OC(COC(=O)C3CCCCC3)C(O)C2O)c(=O)n1` (stereo not given) is 0.8.

Experiment in a further series: not given
Conditions: not given
As to `CCOC(=O)C1=C(C)NC(C)=C(C(=O)OC)C1c1cccc(Cl)c1Cl` (stereo not given), the logP (in general, a log measure of how a compound divides between an organic and an aqueous phase) was determined as 3.65.

Experiment in another series: not given
Conditions: not given
This is another data set of the same source.
As to `CCN1CC(C)n2c(nc3ccccc3c2=O)C1C` (stereo not given), the log partition coefficient (logP) was 1.58. The compound `CCCN1CCn2c(nc3ccccc3c2=O)C1C` (stereo not given) came in with a logP of 1.07. Take `CCCN1CC(C)n2c(nc3ccccc3c2=O)C1C` (stereo not given): the logP amounted to 1.45.

On to `CC1c2nc3ccccc3c(=O)n2C(C)CN1C` (stereo not given), for which the logP stood at 0.44.

A short description of a further series: method code SF-AS, from PMID: 578762. The following applies: pH 5.9.
Compound `CCOC(=O)C=C1NC(=O)C(N2CCCCC2)S1` (stereo in doubt) displayed a logD of 2.3.

Still in this series, the particulars now being: pH 7.4.
As for `CCOC(=O)/C=C1\SC(N(CC)CC)C(=O)N1C` (stereo not given), the log distribution coefficient (logD) was 2.2. In turn, `CCCN1C(=O)C(N2CCCCC2)S/C1=C\C(=O)OCC` (stereo not given) displayed a logD of 2.93. Still for that read-out and setting: the figure for `CCOC(=O)/C=C1/SC(N2CCCCC2)C(=O)N1CC` (stereo not given) is 2.65.

Experiment in the next series: not given
Conditions: not given
The source holds these as a separate data set.
For the compound `COc1ccc(-c2cc(C#N)c(N3CCOCC3)nc2C)cc1`, the logP was 4.4.

On to `COc1ccc(-c2cc(C#N)c(Cl)nc2C)cc1`, for which the logP is 3.38. Still for that read-out and setting: the figure for `Cc1nc(Cl)c(C#N)cc1-c1ccccc1` is 3.24; for `Cc1nc(N2CCOCC2)c(C#N)cc1-c1ccccc1` it is 3.65.

A further series in a line: method code SF-AS, from DOI: 10.1135/cccc19881862. The following applies: pH 3.4.
On to `O=C(O)C(OCc1ccc(Cl)cc1)c1ccccc1` (stereo not given), for which the logD stood at 2.6.

Staying with this series, now noted: pH 3.5.
`CC(CC(=O)c1ccc(-c2ccc(-c3ccc(F)cc3F)cc2)cc1)C(=O)O` (stereo not given): the logD was 3.78. Regarding `CC(CC(=O)O)CC(=O)c1ccc(-c2ccc(-c3ccccc3)cc2)cc1` (stereo not given), the logD amounted to 3.82. Regarding `CC(CC(=O)c1ccc(-c2ccc(-c3ccccc3)cc2)cc1)C(=O)O` (stereo not given), the logD was determined as 3.4.

A short description of another series: method code SF-GLC, from DOI: 10.1016/0048-3575(76)90072-9.
Conditions: not given
In turn, `CCOC(=O)CN(C(=O)CCl)c1c(CC)cccc1CC` displayed a log partition coefficient (logP) of 3.17.

In turn, `CCOC(=O)CN(C(=O)CCl)c1ccccc1OC` returned a logP of 1.78.

In turn, `CCOC(=O)CN(C(=O)CCl)c1ccccc1CC` came in with a logP of 2.57. In turn, `CCOC(=O)CN(C(=O)CCl)c1ccccc1Cl` gave a lipophilicity (logP) of 2.3.

Experiment in the next series: not given
Conditions: not given
The source holds these as a separate data set.
Consider `O=C(Oc1ccc(F)cc1)C1OC(O)C(O)C(O)C1O` (stereo not given), for which the logP is -0.42. For `O=C(Oc1ccc([N+](=O)[O-])cc1)C1OC(O)C(O)C(O)C1O` (stereo not given), the logP was -0.45. On the same count and under the same terms, the same measure for `O=C(Oc1ccc(Cl)cc1)C1OC(O)C(O)C(O)C1O` (stereo not given): 0.45. Same read-out and setting: the same measure for `O=C(Oc1ccc2ccccc2c1)C1OC(O)C(O)C(O)C1O` (stereo not given): 1.39.

Experiment in the next series: not given
Conditions: not given
The source holds these as a separate data set.
In the case of `O=C1CN=C(c2ccc(Cl)cc2)c2cc(Br)ccc2N1`, the logP came to 3.78.

The compound `O=C1CN=C(c2ccc(Br)cc2)c2cc(Br)ccc2N1` registered a logP of 4.08. The compound `O=C1CN=C(c2cccc(Cl)c2)c2ccc(Br)cc2N1` registered a logP of 3.63. As for `O=C1CN=C(c2ccccc2Br)c2cc(Br)ccc2N1`, the logP was 3.3.

The nature of a further series: method code SF-AS, from DOI: 10.1039/p29900001191. The note with it: pH 12.0.
With `NC(=O)c1cc(-c2ccccc2)nnc1NCCN1CCOCC1`, the logD amounted to 1.86. Still for that read-out and setting: the same measure for `Cc1cc(-c2ccccc2)nnc1NCCN1CCOCC1`: 2.03; for `CCc1cc(-c2ccccc2)nnc1NCCN1CCOCC1`: 2.53.

`c1ccc(-c2cc(-c3ccccc3)c(NCCN3CCOCC3)nn2)cc1` yielded a logD of 3.38.

The next series can be described thus: method code SF, from DOI: 10.1097/00004424-199009001-00048. The note with it: pH 7.4.
Regarding `O=C(NCCO)c1c(I)c(C(=O)NCCO)c(I)c(N(CC(O)CO)C(=O)C(O)CO)c1I` (stereo not given), the logD is -2.64.

On to `COCC(=O)Nc1c(I)c(C(=O)NCC(O)CO)c(I)c(C(=O)N(C)CC(O)CO)c1I` (stereo not given), for which the logD is -2.05. For the compound `O=C(NCC(O)CO)c1c(I)c(N(CCO)C(=O)CO)c(I)c(N(CCO)C(=O)CO)c1I` (stereo not given), the logD is -2.55.

With `C[C@H](O)C(=O)Nc1c(I)c(C(=O)NC(CO)CO)c(I)c(C(=O)NC(CO)CO)c1I`, the logD was -2.42.

The next series can be described thus: method code SF-RC, from DOI: 10.1023/a:1015846100305, PMID: 1788157. The note with it: pH 7.3.
For `CC(=O)NC(C)C(=O)NC(Cc1c[nH]cn1)C(=O)NC(C)C(=O)NC(C)(C)C` (stereo not drawn) (Ac-Ala-His-Ala-NHtBu; configuration not given here), the pH-dependent lipophilicity (logD) is -0.48.

On to `CC(=O)NC(C)C(=O)N1CCCC1C(=O)NC(C)C(=O)NC(C)(C)C` (stereo not drawn) (Ac-Ala-Pro-Ala-NHtBu; configuration not given here), for which the logD was -0.39. In the case of `CC(=O)N[C@@H](C)C(=O)N[C@@H](C)C(=O)N[C@@H](C)C(=O)NC(C)(C)C`, the log distribution coefficient (logD) was -0.51. Take `CC(=O)N[C@@H](C)C(=O)N[C@@H](Cc1ccccc1)C(=O)N[C@@H](C)C(=O)NC(C)(C)C` (Ac-Ala-Phe-Ala-NHtBu): the logD turned out to be 1.01.

The next series can be described thus: method code SF-HPLC, from DOI: 10.1002/ps.2780310207.
Conditions: not given
As for `CCCC(Cc1ccccn1)c1ccc(F)cc1` (stereo not given), the logP is 2.61. With `CC(C)(Cc1ccccn1)c1ccc(F)cc1`, the logP was determined as 2.97.

A short description of a further series: method code SF-AS, from DOI: 10.1016/j.ejmech.2015.02.036, PMID: 25728022. The note with it: pH 7.4.
`C=CCn1c(C)nc2cc(Nc3nc(N4CCCC4)nc4[nH]cnc34)ccc21`: the pH-dependent lipophilicity (logD) was found to be 2.53. Same read-out and setting: the figure for `CCCCn1c(C)nc2cc(Nc3nc(N4CCCC4)nc4[nH]cnc34)ccc21` is 1.36; for `CCCCn1c(C)nc2cc(Nc3nc(Cl)nc4[nH]cnc34)ccc21` it is 1.28; for `C=CCn1c(C)nc2cc(Nc3nc(N4CCCCC4)nc4[nH]cnc34)ccc21` it is 1.55.

A short description of the next series: method code SF-AS, from DOI: 10.1080/10826076.2011.619030.
Conditions: not given
`O=C(OCc1ccccc1)OC1C(CO)OC(n2ccc(=O)[nH]c2=O)C1OC(=O)OCc1ccccc1` (stereo not given): the logP is 2.96. Still for that read-out and setting: the same measure for `CC1(C)OC2C(CO)OC(n3ccc(=O)n(C(=O)c4ccccc4)c3=O)C2O1` (stereo not given): 0.95; for `CC1(C)OC2C(CO)OC(n3ccc(=O)[nH]c3=O)C2O1` (stereo not given): -0.47. `CC1(C)OC2C(CO)OC(n3ccc(=O)n(Cc4ccccc4)c3=O)C2O1` (stereo not given) had a logP of 1.82.

Experiment in a further series: not given
Conditions: not given
This is another data set of the same source.
For `CCc1onc(C)c1N=C1C=C(Nc2c(C)noc2CC)C(=O)c2ccccc21`, the logP amounted to 2.71. Same read-out and setting: the figure for `CCC1ON=C(C)C1N=C1C=C(OC)C(=O)c2ccccc21` (stereo not given) is 2.43; for `CCCc1onc(C)c1N=C1C=C(O)C(=O)c2ccccc21` it is 2.52. `CCc1onc(C)c1N=C1C=C(O)C(=O)c2ccccc21` displayed a logP of 2.

A further series can be described thus: method code SF-RC, from DOI: 10.1016/s0969-8043(00)00269-4, PMID: 11200881. The following applies: pH 7.4.
`CCOC(=O)c1ncn2c1CN(C)C(=O)c1cc(F)ccc1-2`: the logD was determined as 1.26. `CN1CCc2c(cc(O)c(O)c2Cl)C(c2ccccc2)C1` (stereo not given) had a logD of 1.4. The same measure, in the same setting: the same measure for `COc1ccc(C2CNC(=O)C2)cc1OC1CCCC1` (stereo not given): 2.17; for `CN1CCc2cc(Cl)c(O)cc2[C@@H](c2ccccc2)C1`: 2.87.

The nature of another series: method code SF-AS, from DOI: 10.1021/jm00085a014, PMID: 1560439. The note with it: pH 7.4.
In the case of `CCc1[nH]c(=O)n(C(C)=O)c1C(=O)c1ccc(-n2ccnc2C)cc1`, the log distribution coefficient (logD) turned out to be 1.42. In turn, `CCC(=O)n1c(C(=O)c2ccc(-n3ccnc3C)cc2)c(CC)[nH]c1=O` displayed a logD of 1.72. `CCc1[nH]c(=O)[nH]c1C(=O)c1ccc(-n2ccnc2C)cc1` had a logD of 0.85. On the same count and under the same terms, the figure for `CCc1[nH]c(=O)n(C(=O)c2ccccc2)c1C(=O)c1ccc(-n2ccnc2C)cc1` is 1.96.

The next series is described as follows: method code SF, from DOI: 10.1021/jm5019252, PMID: 25906180. The following applies: pH 7.4.
With `CN(C(=O)Oc1ccc(O)c(C(=O)NCc2ccccc2)c1)c1ccccc1`, the logD was determined as 4.19.

For `COC(=O)c1cc(OC(=O)N(c2ccccc2)c2ccccc2)ccc1O`, the log distribution coefficient (logD) was 4.46. The same measure, in the same setting: the figure for `CN(C(=O)Oc1ccc(O)c(C(=O)NCc2cccnc2)c1)c1ccccc1` is 2.95; for `COC(=O)c1cc(OC(=O)N(C)c2ccccc2)ccc1O` it is 3.13.

Experiment in the next series: not given
Conditions: not given
This is another data set of the same source.
Compound `CNC1CCC(c2ccc(Cl)c(Cl)c2)c2ccccc21` (stereo not given) returned a logP of 4.3. Same read-out and setting: the same measure for `CCCCOc1ccc(OCCCN2CCOCC2)cc1`: 3.56; for `COc1ccc(CCN2CCC(Nc3nc4ccccc4n3Cc3ccc(F)cc3)CC2)cc1`: 5.7. `NS(=O)(=O)c1cc2c(cc1Cl)N=C(CSCc1ccccc1)NS2(=O)=O` registered a logP of 1.73.
